Values of other authors, collected in publication PMC5510229, “BCAT1 controls metabolic reprogramming in activated human macrophages and is associated with inflammatory diseases” (Nature Communications, 2017).

Experiments:
[1] = set-up: method as in PMID 10381778; conditions: cited from earlier work
[2] = system: a2δ−1 and a2δ−2 subunits of voltage-activated calcium channels; set-up: method as in PMID 19128880; conditions: cited from earlier work

NCC1(CC(=O)O)CCCCC1 [gabapentin]
anti-inflammatory effects [1]: no apparent anti-inflammatory effects | binding affinity [2]: high affinity
